Where a name gives a salt, the structure may show the parent alone. Read-outs that look alike come from different tables or passages of the source.

The source of these data is patent US10004701B2, “Methods and compositions for treating infection” (UNIVERSITY OF ROCHESTER, priority 2012, dated 2018).

Holding throughout (experiment): AK assay 384-well format, Prestwick library screening
One experiment has as its system K. pneumoniae. The format is cell-based, Klebsiella pneumoniae. To be noted: 50 μM final drug concentration; for fold induction at 50 µM: Klebsiella pneumoniae, 3 h.
The subject of another experiment is P. aeruginosa. The format is cell-based, Pseudomonas aeruginosa. To be noted: 50 μM final drug concentration; for fold induction at 50 µM: Pseudomonas aeruginosa, 3 h.
In the next experiment the test system is E. cloacae. Format: cell-based, Enterobacter cloacae. To be noted: 50 μM final drug concentration; for fold induction at 50 µM: Enterobacter cloacae, 3 h.
In a further experiment the test system is E. coli. The format is cell-based, Escherichia coli. The settings on record: 50 μM final drug concentration; for fold induction at 50 µM: Escherichia coli, 3 h.
Experiment [1] relates to S. aureus strain USA300-0114. Format: cell-based, Staphylococcus aureus. To be noted: 50 μM final drug concentration; for fold induction at 50 µM: Staphylococcus aureus, USA300, 3 h.
For experiment [2], the system named is A. baumannii strain 98-37-09. Format: cell-based, Acinetobacter baumannii. The settings on record: 50 μM final drug concentration; for fold induction at 50 µM: Acinetobacter baumannii, 983709, 3 h.
For a further experiment, the system named is E. faecium. Format: cell-based, Enterococcus faecium. The settings on record: 50 μM final drug concentration; for fold induction at 50 µM: Enterococcus faecium, 3 h.
The mark [3] stands for this setting: 384-well format, cutoff for positive-scoring molecules 3-fold increase.
The mark [4] stands for this setting: planktonic K. pneumoniae, cutoff for positive-scoring molecules 3-fold increase, read-out: AK-based Prestwick Library Screening Results, K. pneumoniae (increase in extracellular AK activity).
[5] abbreviates: planktonic P. aeruginosa, cutoff for positive-scoring molecules 3-fold increase, read-out: AK-based Prestwick Library Screening Results, P. aeruginosa (increase in extracellular AK activity).
[6] abbreviates: planktonic E. cloacae, cutoff for positive-scoring molecules 3-fold increase, read-out: AK-based Prestwick Library Screening Results, E. cloacae (increase in extracellular AK activity).
[7] abbreviates: planktonic E. coli, cutoff for positive-scoring molecules 3-fold increase, read-out: AK-based Prestwick Library Screening Results, E. coli (increase in extracellular AK activity).
[8] abbreviates: planktonic S. aureus, cutoff for positive-scoring molecules 3-fold increase, read-out: AK-based Prestwick Library Screening Results, S. aureus (increase in extracellular AK activity).
The mark [9] stands for this setting: planktonic A. baumannii, cutoff for positive-scoring molecules 3-fold increase, read-out: AK-based Prestwick Library Screening Results, A. baumannii (increase in extracellular AK activity).
[10] abbreviates: planktonic E. faecium, cutoff for positive-scoring molecules 3-fold increase, read-out: AK-based Prestwick Library Screening Results, E. faecium (increase in extracellular AK activity).

Regarding `OCC(O)CN1CCN(c2ccccc2)CC1` (racemic) [Dropropizine (R,S)], in the experiment on K. pneumoniae (setting [3]), the “AK-based Prestwick Library Screening Results, K. pneumoniae (increase in extracellular AK activity)” value worked out at 0.5. For the same molecule, the “AK-based Prestwick Library Screening Results, P. aeruginosa (increase in extracellular AK activity)” value in the experiment with P. aeruginosa (setting [3]) was determined as 0.5. For the same molecule, in the experiment on E. cloacae (setting [3]), the “AK-based Prestwick Library Screening Results, E. cloacae (increase in extracellular AK activity)” value is 0.5. Further, the “AK-based Prestwick Library Screening Results, E. coli (increase in extracellular AK activity)” value in the experiment on E. coli (setting [3]) stood at 0.7. In experiment [1] (setting [3]), the “AK-based Prestwick Library Screening Results, S. aureus (increase in extracellular AK activity)” value was 0.5. Also, the “AK-based Prestwick Library Screening Results, A. baumannii (increase in extracellular AK activity)” value in experiment [2] (setting [3]) worked out at 0.5. The “AK-based Prestwick Library Screening Results, E. faecium (increase in extracellular AK activity)” value with E. faecium (setting [3]) was found to be 0.9.
With `COc1ccc2c(c1)C(=O)N(CCc1ccc(S(=O)(=O)NC(=O)NC3CCCCC3)cc1)C(=O)C2(C)C` [Gliquidone], the fold induction at 50 µM in the experiment on K. pneumoniae (planktonic K. pneumoniae, positive cutoff 3-fold increase, read-out: AK-based Prestwick library screening result, K. pneumoniae (fold increase in extracellular AK activity)) turned out to be 0.7; in the experiment with P. aeruginosa (planktonic P. aeruginosa, positive cutoff 3-fold increase, read-out: AK-based Prestwick library screening result, P. aeruginosa (fold increase in extracellular AK activity)), 0.8; in the experiment on E. cloacae (planktonic E. cloacae, positive cutoff 3-fold increase, read-out: AK-based Prestwick library screening result, E. cloacae (fold increase in extracellular AK activity)) it was 1.1; in the experiment on E. coli (planktonic E. coli, positive cutoff 3-fold increase, read-out: AK-based Prestwick library screening result, E. coli (fold increase in extracellular AK activity)), 0.8; in experiment [1] (planktonic S. aureus, positive cutoff 3-fold increase, read-out: AK-based Prestwick library screening result, S. aureus (fold increase in extracellular AK activity)) it was 0.5; in experiment [2] (planktonic A. baumannii, positive cutoff 3-fold increase, read-out: AK-based Prestwick library screening result, A. baumannii (fold increase in extracellular AK activity)), 0.7. In addition, in the experiment on E. faecium (planktonic E. faecium, positive cutoff 3-fold increase, read-out: AK-based Prestwick library screening result, E. faecium (fold increase in extracellular AK activity)), the fold induction at 50 µM is 0.9.
As for `Clc1cccc(Cl)c1N=C1NCCN1` [Clonidine hydrochloride], the fold induction at 50 µM with K. pneumoniae (384-well format, cutoff for positive-scoring molecules 3-fold increase, read-out: AK-based Prestwick Library Screening Results, K. pneumoniae (increase in extracellular AK activity)) was 0.5; in the experiment on P. aeruginosa (384-well format, cutoff for positive-scoring molecules 3-fold increase, read-out: AK-based Prestwick Library Screening Results, P. aeruginosa (increase in extracellular AK activity)), 0.5; in the experiment on E. cloacae (384-well format, cutoff for positive-scoring molecules 3-fold increase, read-out: AK-based Prestwick Library Screening Results, E. cloacae (increase in extracellular AK activity)) it was 0.6; in the experiment on E. coli (384-well format, cutoff for positive-scoring molecules 3-fold increase, read-out: AK-based Prestwick Library Screening Results, E. coli (increase in extracellular AK activity)), 0.5; in experiment [1] (384-well format, cutoff for positive-scoring molecules 3-fold increase, read-out: AK-based Prestwick Library Screening Results, S. aureus (increase in extracellular AK activity)), 0.5; in experiment [2] (384-well format, cutoff for positive-scoring molecules 3-fold increase, read-out: AK-based Prestwick Library Screening Results, A. baumannii (increase in extracellular AK activity)), 0.6. The fold induction at 50 µM in the experiment on E. faecium (384-well format, cutoff for positive-scoring molecules 3-fold increase, read-out: AK-based Prestwick Library Screening Results, E. faecium (increase in extracellular AK activity)) worked out at 0.9.
Consider `CC(O)(P(=O)(O)O)P(=O)(O)O` [Etidronic acid, disodium salt], for which the fold induction at 50 µM stood at 1 in the experiment with K. pneumoniae (cutoff for positive-scoring molecules 3-fold increase, read-out: AK-based Prestwick Library Screening Results, K. pneumoniae (fold increase in extracellular AK activity)); 1.1 in the experiment with P. aeruginosa (cutoff for positive-scoring molecules 3-fold increase, read-out: AK-based Prestwick Library Screening Results, P. aeruginosa (fold increase in extracellular AK activity)); 1.4 in the experiment with E. cloacae (cutoff for positive-scoring molecules 3-fold increase, read-out: AK-based Prestwick Library Screening Results, E. cloacae (fold increase in extracellular AK activity)); 1.3 with E. coli (cutoff for positive-scoring molecules 3-fold increase, read-out: AK-based Prestwick Library Screening Results, E. coli (fold increase in extracellular AK activity)); 1.2 in experiment [1] (cutoff for positive-scoring molecules 3-fold increase, read-out: AK-based Prestwick Library Screening Results, S. aureus (fold increase in extracellular AK activity)); 1.2 in experiment [2] (cutoff for positive-scoring molecules 3-fold increase, read-out: AK-based Prestwick Library Screening Results, A. baumannii (fold increase in extracellular AK activity)). Moreover, in the experiment with E. faecium (cutoff for positive-scoring molecules 3-fold increase, read-out: AK-based Prestwick Library Screening Results, E. faecium (fold increase in extracellular AK activity)), the fold induction at 50 µM is 1.
On to `C#CCN(C)[C@H](C)Cc1ccccc1` [Selegiline hydrochloride], for which the fold induction at 50 µM was 1.2 in the experiment on K. pneumoniae (planktonic, […], read-out: AK-based Prestwick Library Screening Results, K. pneumoniae (fold increase in extracellular AK activity)); 1.2 in the experiment on P. aeruginosa (planktonic, […], read-out: AK-based Prestwick Library Screening Results, P. aeruginosa (fold increase in extracellular AK activity)); 1.6 in the experiment with E. cloacae (planktonic, […], read-out: AK-based Prestwick Library Screening Results, E. cloacae (fold increase in extracellular AK activity)); 1.3 in the experiment with E. coli (planktonic, […], read-out: AK-based Prestwick Library Screening Results, E. coli (fold increase in extracellular AK activity)); 1.1 in experiment [1] (planktonic, […], read-out: AK-based Prestwick Library Screening Results, S. aureus (fold increase in extracellular AK activity)); 1.1 in experiment [2] (planktonic, […], read-out: AK-based Prestwick Library Screening Results, A. baumannii (fold increase in extracellular AK activity)). Moreover, the fold induction at 50 µM in the experiment on E. faecium (planktonic, […], read-out: AK-based Prestwick Library Screening Results, E. faecium (fold increase in extracellular AK activity)) worked out at 1.
On to `N[C@@H](C(=O)N[C@@H]1C(=O)N2C(C(=O)O)=C(Cl)CS[C@H]12)c1ccccc1` [Cefaclor], for which the fold induction at 50 µM in the experiment with K. pneumoniae (setting [4]) was determined as 2.5; in the experiment on P. aeruginosa (setting [5]) it was 0.5; in the experiment with E. cloacae (setting [6]), 0.7; in the experiment with E. coli (setting [7]), 10.7; in experiment [1] (setting [8]), 0.5; in experiment [2] (setting [9]), 1.5. For the same molecule, in the experiment on E. faecium (setting [10]), the fold induction at 50 µM came to 0.9.
`CC[C@H]1CN2CCc3cc(OC)c(OC)cc3[C@@H]2C[C@@H]1C[C@H]1NCCc2cc(OC)c(OC)cc21` [Emetine dihydrochloride]: the fold induction at 50 µM in the experiment on K. pneumoniae (setting [4]) was determined as 0.6; in the experiment on P. aeruginosa (setting [5]), 0.5; in the experiment on E. cloacae (setting [6]), 0.5; in the experiment with E. coli (setting [7]), 0.5; in experiment [1] (setting [8]), 0.5; in experiment [2] (setting [9]), 0.5. For the same molecule, the fold induction at 50 µM in the experiment with E. faecium (setting [10]) was 0.9.
As to `CNCCC=C1c2ccccc2C=Cc2ccccc21` [Norcyclobenzaprine], the “AK-based Prestwick Library Screening Results, K. pneumoniae (increase in extracellular AK activity)” value in the experiment with K. pneumoniae (planktonic K. pneumoniae, cutoff for positive-scoring molecules 3-fold increase) is 0.9. In the experiment with P. aeruginosa (planktonic P. aeruginosa, cutoff for positive-scoring molecules 3-fold increase), the “AK-based Prestwick Library Screening Results, P. aeruginosa (increase in extracellular AK activity)” value turned out to be 1.0. The “AK-based Prestwick Library Screening Results, E. cloacae (increase in extracellular AK activity)” value with E. cloacae (planktonic E. cloacae, cutoff for positive-scoring molecules 3-fold increase) amounted to 1.3. For the same molecule, in the experiment on E. coli (planktonic E. coli, cutoff for positive-scoring molecules 3-fold increase), the “AK-based Prestwick Library Screening Results, E. coli (increase in extracellular AK activity)” value was 6.3. Moreover, the “AK-based Prestwick Library Screening Results, S. aureus (increase in extracellular AK activity)” value in experiment [1] (planktonic S. aureus, cutoff for positive-scoring molecules 3-fold increase) was determined as 0.6. The “AK-based Prestwick Library Screening Results, A. baumannii (increase in extracellular AK activity)” value in experiment [2] (planktonic A. baumannii, cutoff for positive-scoring molecules 3-fold increase) stood at 1.1. For the same molecule, the “AK-based Prestwick Library Screening Results, E. faecium (increase in extracellular AK activity)” value with E. faecium (planktonic E. faecium, cutoff for positive-scoring molecules 3-fold increase) stood at 0.8.
